Data on three compounds can be found in patent US20070089183A1, “Size and/or growth engineering by modulation of the interaction between calmodulin, and brassinosteroid biosynthetic enzymes and orthologs therof” (Washington State University, priority 2005, published 2007).

The subject of one experiment is DWF4 null mutant. Put plainly: complementation of DWF4 null mutant or overexpression, plant growth. The format is in vivo, Arabidopsis. From the text:
For example, partial dwarf Arabidopsis plants were generated through manipulation of the DWF4 CaMBD regulatory domain.

Experiment [1] relates to cM1, cM2, cM3 and the dwf1 mutant. The experiment can be described thus: exogenous application of brassinolide to dwarf plants. Type of experiment: in vivo, Arabidopsis. Particulars: data not shown. From the text:
To ensure a reliable comparison of the complementary effects of normal DWF1 and the three mutants, T2 plants with similar expression levels were compared (FIG. 3b-d). […] Seeds were produced in most of the slightly shorter siliques of cM1 plants (FIG. 3b, c). […] The dwarf phenotypes of cM1, cM2, cM3 and the dwf1 mutant were rescued by exogenous application of brassinolide (data not shown).

Where no end group is shown, it is not given here.

With “DWF4 mutant having a L to D change at amino acid 21: DWF4 with L to D change at aa 21 within the N-terminal CaMBD (PSLLSDLLFLILLKRRNRKTRFNLP; not fully specified; listed as Arabidopsis thaliana)”, the plant growth phenotype result in the experiment with DWF4 null mutant (complementing a DWF4 null mutant) is listed as “semi-dwarf”. Turning to `CC(C)[C@H](C)[C@@H](O)[C@H](O)[C@@H](C)[C@H]1CC[C@H]2[C@@H]3COC(=O)[C@H]4C[C@H](O)[C@H](O)C[C@]4(C)[C@H]3CC[C@]12C` [brassinolide], the “rescue of dwarf phenotypes” value in experiment [1] is given as “rescued”. For “mutant having a L to V change at amino acid 28: DWF4 with L to V change at aa 28 within the N-terminal CaMBD (PSLLSLLLFLILVKRRNRKTRFNLP; listed as Arabidopsis thaliana)”, in the experiment on DWF4 null mutant (overexpression), the plant growth phenotype entry is on record as “enhanced growth”.
